Our source for the activity and response vs control in vivo values is patent US6235731A, “Fused imidazopyridine derivatives as antihyperlipidemic agents” (Takeda Chemical Industries, Ltd., priority 1996, dated 2001).

One assay has as its system HepG2 cells. Nature of the assay: Increase in LDL-binding to HepG2 cells. Type of assay: cell-based. Particulars: 10 μM test compound, 20 hours, specific human [125I]LDL binding, normalized by protein, read-out: LDL binding (% of control). The procedure:
Increase in LDL-binding to HepG2 cells LDL-binding was measured according to the method of J. L. Goldstein. HepG2 cells were purchased from ATCC (American type culture collection) and seeded in 6-well plate with collagen coating (Sumitomo Bakelite), and cultured in Eagle's minimum essential medium (MEM) containing 10%-fetal bovine serum at 37° C. for 4 days. […] After washing with phosphate buffered saline cells were incubated with MEM containing 25 mM-HEPES and 1%-bovine serum albumin (fatty acid free) in the presence of human [^125 I]LDL (4 μg/ml) at 6° C. for 2 hours. After washing cells bound [^125 I]LDL was dissociated with dextran sulfate and the radioactivity was measured (total binding). [^125 I]LDL binding to cells was also measured in the presence of LDL (300 μg/ml) as a non-specific binding (NSB). Specific [^125 I]LDL-binding was calculated by subtracting NSB from total binding and was normalized by protein content measured by the method of lowry. Data was expressed as percentage of the control.

For the next assay, the system named is Golden Syrian hamsters. Nature of the assay: Cholesterol lowering activity in Golden hamster. Type of assay: in vivo, Golden Syrian hamster. Particulars: Mesocricetus auratus, po, 96 h, 20 mg/kg/d orally, once daily for 4 days. The procedure: Cholesterol lowering activity in Golden hamster Male Golden Syrian hamsters (110-130 g) were maintained freely on water and a laboratory diet (CE-2, Clea Japan Inc., Tokyo). […] Blood was taken from orbital sinus and plasma total cholesterol and triglyceride were measured an automatic analyzer (Hitachi 7070, Hitachi Ltd., Tokyo) using commercial kits (Wako Pure Chemical Industries, Osaka), and plasma HDL-cholesterol using a commercial kit (Kyowa Medex Co., Ltd., Tokyo) before and after the treatment of compound. Non-HDL cholesterol was calculated by subtracting HDL-cholesterol from total cholesterol. |Non-HDL-C (non-HDL-cholesterol): [total cholesterol]-[HDL-cholesterol] |TG: triglyceride

Where [1] appears, read: plasma triglyceride, read-out: TG (% of control).
[2] abbreviates: plasma, [total cholesterol]-[HDL-cholesterol], read-out: Non-HDL-C (% of control).

SMILES strings stand for the structures. Structures can show the parent of a compound that is named as a salt. Where two headings read alike, the source gives them in different places.

`O=C(NCCCN1CCC(c2ccccc2)CC1)C1=Cc2cnc3cccc(n23)S1` [Example 27, N-[3-(4-phenylpiperidin-1-yl)propan-1-yl]-5-thia-1,8b-diazaacenaphthylene-4-carboxamide Dihydrochloride]: in the assay with HepG2 cells, the activity at 10 µM came out at 168%. Besides, the response vs control in vivo at 20 mg/kg in the assay on Golden Syrian hamsters (setting [1]) amounted to 83.9%; with Golden Syrian hamsters (setting [2]), 73.9%.
As for `O=C(NCCN1CCN(CCCc2ccccc2)CC1)C1=Cc2cnc3cccc(n23)S1` [Example 58, N-[2-(4-(3-phenylpropan-1-yl)piperazin-1-yl)ethan-1-yl]-5-thia-1,8b-diazaacenaphthylene-4-carboxamide Trihydrochloride], the response vs control in vivo at 20 mg/kg in the assay on Golden Syrian hamsters (setting [1]) was found to be 71.2%; in the assay with Golden Syrian hamsters (setting [2]), 74%.
With `O=C(NCC1CCN(CC2COc3ccccc3O2)CC1)C1=Cc2cnc3cccc(n23)S1` (centres unmarked) [Example 3, N-[1-(1,4-benzodioxan-2-ylmethyl)piperidin-4-ylmethyl]-5-thia-1,8b-diazaacenaphthylene-4-carboxamide dihydrochloride], in the assay with HepG2 cells, the activity at 10 µM turned out to be 194%. For the same molecule, the response vs control in vivo at 20 mg/kg with Golden Syrian hamsters (setting [1]) is 91.3%; with Golden Syrian hamsters (setting [2]), 69.5%.
Consider `O=C(NCC1CCN(CCCOc2ccc(F)cc2F)CC1)C1=Cc2cnc3cccc(n23)S1` [Example 117, N-[1-(3-(2,4-difluorophenoxy)propan-1-yl)piperidin-4-ylmethyl]-5-thia-1,8b-diazaacenaphthylene-4-carboxamide Dihydrochloride], for which the activity at 10 µM in the assay with HepG2 cells was found to be 137%.
Still for that read-out and setting: then `O=C(NCC1CCN(CCCc2ccccc2Cl)CC1)C1=Cc2cnc3cccc(n23)S1` [Example 77, N-[1-(3-(2-chlorophenyl)propan-1-yl)piperidin-4-ylmethyl]-5-thia-1,8b-diazaacenaphthylene-4-carboxamide Dihydrochloride], with 168%.
Turning to `O=C(C=CC1=Cc2cnc3cccc(n23)S1)NC1CCN(CCCc2ccccc2)CC1` [Example 10, N-[1-(3-phenylpropan-1-yl)piperidin-4-yl]-3-(5-thia-1,8b-diazaacenaphthylen-4-yl)acrylamide dihydrochloride], the activity at 10 µM in the assay on HepG2 cells was 169%. In addition, the values for the response vs control in vivo at 20 mg/kg in the assay on Golden Syrian hamsters (setting [1]) and in the assay on Golden Syrian hamsters (setting [2]) were 70.8% and 61%, respectively.
As for `O=C(C1=Cc2cnc3cccc(n23)S1)N(Cc1ccccc1)CC1CCN(CCCc2ccccc2)CC1` [Example 52, N-benzyl-N-[1-(3-phenylpropan-1-yl)piperidin-4-ylmethyl]-5-thia-1,8b-diazaacenaphthylene Dihydrochloride], in the assay on HepG2 cells, the activity at 10 µM was determined as 183%.
Consider `O=C(NCC1CCN(CCc2ccccc2F)CC1)C1=Cc2cnc3cccc(n23)S1` [Example 68, N-[1-(2-fluorophenethyl)piperidin-4-ylmethyl]-5-thia-1,8b-diazaacenaphthylene-4-carboxamide Dihydrochloride], for which the response vs control in vivo at 20 mg/kg in the assay with Golden Syrian hamsters (setting [1]) came out at 74.3%; in the assay with Golden Syrian hamsters (setting [2]), 58.5%.
For the molecule `O=C(NCCCC1CCN(CCCc2ccccc2)CC1)C1=Cc2cnc3cccc(n23)S1` [Example 46, N-[3-(1-(3-phenylpropan-1-yl)piperidin-4-yl)propan-1-yl]-5-thia-1,8b-diazaacenaphthylene-4-carboxamide Dihydrochloride], the activity at 10 µM in the assay with HepG2 cells stood at 166%. The response vs control in vivo at 20 mg/kg in the assay with Golden Syrian hamsters (setting [1]) was found to be 72.4%; in the assay with Golden Syrian hamsters (setting [2]), 69.6%.
With `O=C(NCCCCN1CCN(Cc2ccccc2)CC1)C1=Cc2cnc3cccc(n23)S1` [Example 32, N-[4-(4-benzyl-1-piperazinyl)butan-1-yl]-5-thia-1,8b-diazaacenaphthylene-4-carboxamide Trihydrochloride], the results for the response vs control in vivo at 20 mg/kg in the assay on Golden Syrian hamsters (setting [1]) and in the assay with Golden Syrian hamsters (setting [2]) were 76.5% and 76.6%, respectively.
As for `O=C(NCC1CCN(C[C@H]2COc3ccccc3O2)CC1)C1=Cc2cnc3cccc(n23)S1` [Example 2, (S)-N-[1-(1,4-benzodioxan-2-ylmethyl)piperidin-4-ylmethyl]-5-thia-1,8b-diazaacenaphthylene-4-carboxamide], the activity at 10 µM with HepG2 cells was found to be 172%. Also, the response vs control in vivo at 20 mg/kg in the assay on Golden Syrian hamsters (setting [1]) is 102%; in the assay with Golden Syrian hamsters (setting [2]), 65.1%.
The corresponding values for `O=C(NCCCCN1CCC(c2ccccc2)CC1)C1=Cc2cnc3cccc(n23)S1` [Example 26, N-[4-(4-phenylpiperidin-1-yl)butan-1-yl]-5-thia-1,8b-diazaacenaphthylene-4-carboxamide Dihydrochloride] are 189%, 82% and 66.4%.
In the case of `O=C(NC1CCN(CCCc2ccccc2Cl)CC1)C1=Cc2cnc3cccc(n23)S1` [Example 39, N-[1-[3-(2-chlorophenyl)propan-1-yl]piperidin-4-yl]-5-thia-1,8b-diazaacenaphthylene-4-carboxamide dihydrochloride], the response vs control in vivo at 20 mg/kg in the assay with Golden Syrian hamsters (setting [1]) was 62.6%; with Golden Syrian hamsters (setting [2]), 62.7%.
In the case of `O=C(NCC1CCN(CCCOc2ccc(F)cc2)CC1)C1=Cc2cnc3cccc(n23)S1` [Example 113, N-[1-(3-(4-fluorophenoxy)propan-1-yl)piperidin-4-ylmethyl]-5-thia-1,8b-diazaacenaphthylene-4-carboxamide Dihydrochloride], the activity at 10 µM in the assay on HepG2 cells is 140%.
For the molecule `O=C(NCCCCN1CCc2ccccc2C1)C1=Cc2cnc3cccc(n23)S1` [Example 34, N-[4-(1,2,3,4-tetrahydroisoquinolin-2-yl)butan-1-yl]-5-thia-1,8b-diazaacenaphthylene-4-carboxamide Dihydrochloride], the response vs control in vivo at 20 mg/kg in the assay on Golden Syrian hamsters (setting [1]) worked out at 74.7%; with Golden Syrian hamsters (setting [2]), 72.2%.
The corresponding values for `O=C(NCCCN1CCC(Cc2ccccc2)CC1)C1=Cc2cnc3cccc(n23)S1` [Example 29, N-[3-(4-benzylpiperidin-1-yl)propan-1-yl]-5-thia-1,8b-diazaacenaphthylene-4-carboxamide Dihydrochloride] are 73.9% and 68.1%.
The corresponding values for `O=C(NCC1CCN(CCc2ccc(F)cc2)CC1)C1=Cc2cnc3cccc(n23)S1` [Example 70, N-[1-(4-fluorophenethyl)piperidin-4-ylmethyl]-5-thia-1,8b-diazaacenaphthylene-4-carboxamide Dihydrochloride] are 71.2% and 47.9%.
The corresponding values for `O=C(NCC1CCN(CCCc2cccc(F)c2)CC1)C1=Cc2cnc3cccc(n23)S1` [Example 74, N-[1-(3-(3-fluorophenyl)propan-1-yl)piperidin-4-ylmethyl]-5-thia-1,8b-diazaacenaphthylene-4-carboxamide Dihydrochloride] are 67.9% and 73.5%.
`O=C(NCCCN1CCN(Cc2ccccc2)CC1)C1=Cc2cnc3cccc(n23)S1` [Example 33, N-[3-(4-benzyl-1-piperazinyl)propan-1-yl]-5-thia-1,8b-diazaacenaphthylene-4-carboxamide Trihydrochloride]: the response vs control in vivo at 20 mg/kg is 85.6% with Golden Syrian hamsters (setting [1]) and 77.1% in the assay on Golden Syrian hamsters (setting [2]).
As to `COc1ccccc1CCCN1CCC(CNC(=O)C2=Cc3cnc4cccc(n34)S2)CC1` [Example 80, N-[1-(3-(2-methoxyphenyl)propan-1-yl)piperidin-4-ylmethyl]-5-thia-1,8b-diazaacenaphthylene-4-carboxamide Dihydrochloride], the activity at 10 µM in the assay on HepG2 cells was 248%.
